# Publication PMC6774960, “Design, synthesis and biological evaluation of a series of new resveratrol analogues as potential anti-cancer agents” (Royal Society Open Science, 2019)
# Experiments:
# Assay type in all cases: cell-based, human
# [1] = MTT cytotoxicity test, LO2; conditions: human, LO2 cells (normal human hepatocytes), average of three determinations
# Experimental: Vero cells are non-tumorigenic cell lines and are important raw materials as the research and production of biological products. Vero cells show low tumorigenicity and had been approved for use in the production of human virus vaccines. Thus, Vero cells were chosen as a control for cytotoxicity. All compounds were evaluated for their cell toxicity against Vero and normal human hepatocytes cells line (LO2) using MTT assays.
# The anti-proliferative and cytotoxicity activity was determined using MTT assay. Human cervical carcinoma HeLa cells, human hepatocellular carcinoma HepG2 cells, human lung carcinoma A549 cells were representative in the anti-proliferation assay, which were obtained from the Shanghai Institute of Cell Biology (Shanghai, China). Normal African green monkey kidney Vero cells were a gift from Dr Xiumiao He at Guangxi University for Nationalities. Normal human hepatocytes LO2 cells were a gift from Dr Xing Lin at Guangxi Medical University. The HepG2, Hela, LO2 and Vero cells were cultured in Dulbecco's modified Eagle's medium (DMEM, Gibco) and the A549 cells were cultured in RPMI1640 (Gibco), both media were supplemented with 10% fetal calf serum and antibiotics (100 IU ml^−1 penicillin, 100 IU ml^−1 streptomycin; Amresco).
# Cells were seeded in 96-well microtiter plates at a density of 1 × 10^4 cells well^−1 and incubated with different concentrations of compound (6.25, 12.50, 25.00, 50.00 to 100.00 µM), cisplatin and paclitaxel in RPMI-1640 or DMEM at 37°C with 5% CO2. After 24 h, cell morphology was observed using a light microscope, and then 20 µl of MTT solution (5 mg ml^−1) was added to the well and incubated for 4 h, then cell survival was determined by measuring the optical density (OD) absorbance at a wavelength of 570 nm using an ELISA microplate reader. The inhibition rate (IR) following each compound treatment was determined by the following equation: IR (%) = (1 − ODexp/ODcon) × 100%, where ODexp and ODcon are the OD of the treated and untreated cells, respectively. Cisplatin and paclitaxel were used as positive control drugs.
# HepG2 cells = assay: Cell cycle assay by flow cytometry; conditions: 24 h, mean ± s.d.
# Experimental: To evaluate the effects of compound r on cell cycle progression of HepG2, cells were treated with compound r at different concentrations (0, 5, 15 and 45 µM) for 24 h and then examined by flow cytometry. The accumulation of cells in S phase increased with increasing concentration of compound r. Approximately 18.36 ± 1.93%, 19.39 ± 2.06%, 29.9 ± 0.87% and 34.24 ± 1.00% of cells were arrested in S phase in response to 0, 5, 15 and 45 µM compound r, respectively. In comparison, 39.56 ± 0.97% cells were arrested in S phase after treatment with 20 µM cisplatin for 24 h.
# Figure 5. Cells treated with 0, 5, 15 and 45 µM compound r for 24 h were collected and analysed by flow cytometry. Images were representative of three independent experiments. Values represented the mean ± s.d.; versus blank, *p < 0.01, **p < 0.001; versus control ^#p < 0.01, ^##p < 0.001.
# Cells were treated with compound r (0, 5, 15, 45 µM) or 20 µM of cisplatin as the control for 24 h. Cells were collected by centrifugation (1000 rpm, 5 min), washed with PBS and fixed with 70% ice-cold ethanol overnight at 4°C. The cell cycle was examined on a flow cytometer using a cell cycle analysis kit (Beyotime Biotechnologyin, China) in accordance with the manufacturer's instructions.
# β-tubulin in HepG2 cells = assay: Immunofluorescence microscopy assay of β-tubulin; conditions: 24 h
# Experimental: Resveratrol was previously reported to hamper microtubule function. To examine whether the anti-proliferative activity of compound r, a resveratrol derivative, was related to an interaction with tubulin, we examined β-tubulin in HepG2 cells treated with compound r and by immunofluorescence assay. Compound r ranging from 5 to 45 µM inhibited β-tubulin for 24 h (figure 3). […] In addition, after incubation with compound r (5, 15 and 45 µM), many cells became multinucleated. These phenomena were consistent with those observed with other microtubule-targeted drugs.
# Figure 3. Compound r promoted microtubule depolymerization in HepG2 cells. The HepG2 cells were treated with 0, 5, 15 or 45 µM compound r for 24 h, microtubule networks and nuclei were observed by immunofluorescence microscopy assay.
# HepG2 cells were cultured in DMEM supplemented with 10% fetal bovine serum on coverslips in 6-well plates and allowed to adhere for at least 12 h. Cells were then incubated in the presence or absence of compound r (0, 5, 15, 45 µM) for 24 h. Control cells were incubated with vehicle alone. […] Cell nuclei were stained with 4,6-diamidino-2-phenylindole (DAPI) and then images were obtained with a fluorescence microscope equipped with a motorized image capture system. […]
structure (smiles),measurement,setting,value
"COc1ccc(C(=Cc2cc(C(F)(F)F)ccc2Cl)C(=O)O)cc1 [compound r, 3-(2-chloro-5-(trifluoromethyl)phenyl)-2-(4-methoxyphenyl) acrylic acid]",CC50 at 24 h,[1],> 100 µM
same,cells arrested in S phase,"HepG2 cells; HepG2, 5 µM",~19.39 ± 2.06%
same,cells arrested in S phase,"HepG2 cells; HepG2, 15 µM",~29.9 ± 0.87%
same,cells arrested in S phase,"HepG2 cells; HepG2, 45 µM",~34.24 ± 1.00%
same,microtubule network / cytoskeleton appearance,"β-tubulin in HepG2 cells; HepG2, 45 µM",microtubules appeared depolymerized
same,microtubule network / cytoskeleton appearance,"β-tubulin in HepG2 cells; HepG2, 5 and 15 µM",highly abnormal cytoskeleton
